Legend:
Assay type in all cases: binding
[1] = system: IgG from human donors (anti-AAV antibodies); assay: Screen for anti-AAV antibodies in human sera, 2452 linear 15-amino-acid AAV peptides on microarrays (Table 1); parameters: key to group I: X: the deduplicated aggregate of the respective top 10 peptide hits for each donor was compiled and designated as group I; key to group II: X: the deduplicated aggregate of the respective top 25 peptide hits for each donor was compiled and designated as group II; key to group III: X: the deduplicated aggregate of the respective top 50 peptide hits for each donor was compiled and designated as group III; conditions: human donor IgG binding to linear 15-amino-acid AAV peptides on microarray, fluorescence; for group I: membership in deduplicated aggregate of top 10 peptide hits for each donor; for group II: membership in deduplicated aggregate of top 25 peptide hits for each donor; for group III: membership in deduplicated aggregate of top 50 peptide hits for each donor
Summary of the method: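 Peptide hits were grouped I to IV by pooling each donor's top 10, 25, 50 or 250 background-corrected fluorescence signals, after deduplication. Signals came from donor IgG, purified on protein G, bound to arrayed 15-residue linear peptides (2452 total) spanning 16 AAV sequences.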

[2] = system: IgG from human donors (anti-measles virus antibodies); parameters: key: X: The peptides belonging to the Top 10% hits
[3] = system: mAb Mac2-158; assay: Epitope mapping of mAb Mac2-158 with circular peptides of human CD163 SRCR domain 1; conditions: circular peptides aligned to SRCR domain 1 of human CD163
Description: As a result, the following sequences (as well as motifs derived therefrom) are highly suitable epitopes anti-CD163 antibodies and fragments thereof used as SADC biopolymer scaffold: […]

[4] = system: mAb E10B10; assay: Fine epitope mapping of mAb E10B10 with 1068 circular peptides from SRCR-1 to -3 of mouse CD163; conditions: circular peptides of 7, 10 and 13 amino acids from mouse CD163
Description: The epitope of this antibody was fine mapped using circular peptide arrays, whereby the peptides were derived from mouse CD163.

GKKRPVDQSPQEPD (REGION 1..14: note = peptide derived from viral capsid protein) [SEQ ID NO: 1919]
group I [1]: X | group II [1]: X | group III [1]: X | top 10% [2]: X

DEEEIRTTNPVATE (REGION 1..14: note = peptide derived from viral capsid protein) [SEQ ID NO: 1902]
peptide number among the top 20 peptide hits of mAb Mac2-158 [3]: 18 | group I [1]: X | group II [1]: X | group III [1]: X | top 10% [2]: X

FGKQGAGRDNVDYS [SEQ ID NO: 1915]
group I [1]: X | group II [1]: X | group III [1]: X | top 10% [2]: X

TRPATAPQIGTVNS [SEQ ID NO: 1905]
group I [1]: X | group II [1]: X | group III [1]: X | top 10% [2]: X

SESVPDPQPIGEPP (REGION 1..14: note = peptide derived from viral capsid protein) [SEQ ID NO: 1899]
peptide number among the top 20 peptide hits of mAb Mac2-158 [3]: 09 | group I [1]: X | group II [1]: X | group III [1]: X | top 10% [2]: X

378 (ASAVTNAPGE) [compound 378]
rank by relative signal strength (top binding peptides of mAb E10B10) [4]: 11

YLYYLNRTQGTTSG [SEQ ID NO: 1925]
group I [1]: X | group II [1]: X | group III [1]: X | top 10% [2]: X

376 (AVTNAPGEMK) [compound 376]
rank by relative signal strength (top binding peptides of mAb E10B10) [4]: 09

370 (VTNAPGEMKK) [compound 370]
rank by relative signal strength (top binding peptides of mAb E10B10) [4]: 03

SFITQYSTGQVSVE (REGION 1..14: note = peptide derived from viral capsid protein) [SEQ ID NO: 1914]
peptide number among the top 20 peptide hits of mAb Mac2-158 [3]: 17 | group I [1]: X | group II [1]: X | group III [1]: X

FNIQVKEVTTNDGV (REGION 1..14: note = peptide derived from viral capsid protein) [SEQ ID NO: 1910]
peptide number among the top 20 peptide hits of mAb Mac2-158 [3]: 06 | group I [1]: X | group II [1]: X | group III [1]: X

ANNLTSTVQIFADS (REGION 1..14: note = peptide derived from viral capsid protein) [SEQ ID NO: 1895]
group I [1]: X | group II [1]: X | group III [1]: X | top 10% [2]: X

380 (TNAPGEMKKE) [compound 380]
rank by relative signal strength (top binding peptides of mAb E10B10) [4]: 13

KTAPGKKRPVDQSP (REGION 1..14: note = peptide derived from viral capsid protein) [SEQ ID NO: 1920]
group I [1]: X | group II [1]: X | group III [1]: X | top 10% [2]: X

379 (SAVTNAPGEMKKE) [compound 379]
rank by relative signal strength (top binding peptides of mAb E10B10) [4]: 12

373 (AVTNAPGEMKKEL) [compound 373]
rank by relative signal strength (top binding peptides of mAb E10B10) [4]: 06

GETTRPATAAQTQV [SEQ ID NO: 1906]
peptide number among the top 20 peptide hits of mAb Mac2-158 [3]: 01 | group I [1]: X | group II [1]: X | group III [1]: X

YDQQLKAGDNPYLK (REGION 1..14: note = peptide derived from viral capsid protein) [SEQ ID NO: 1924]
group I [1]: X | group II [1]: X | group III [1]: X | top 10% [2]: X

STNLQRGNLALGET [SEQ ID NO: 1894]
group I [1]: X | group II [1]: X | group III [1]: X | top 10% [2]: X

371 (VTNAPGE) [compound 371]
rank by relative signal strength (top binding peptides of mAb E10B10) [4]: 04

IFNIQVKEVTTSNG (REGION 1..14: note = peptide derived from viral capsid protein) [SEQ ID NO: 1907]
peptide number among the top 20 peptide hits of mAb Mac2-158 [3]: 02 | group I [1]: X | group II [1]: X | group III [1]: X

PQYGYLTLNNGSQA (REGION 1..14: note = peptide derived from viral capsid protein) [SEQ ID NO: 1901]
peptide number among the top 20 peptide hits of mAb Mac2-158 [3]: 14 | group I [1]: X | group II [1]: X | group III [1]: X

368 (VTNAPGEMKKELR) [compound 368]
rank by relative signal strength (top binding peptides of mAb E10B10) [4]: 01

374 (SASAVTNAPGEMK) [compound 374]
rank by relative signal strength (top binding peptides of mAb E10B10) [4]: 07

375 (SGSASAVTNAPGE) [compound 375]
rank by relative signal strength (top binding peptides of mAb E10B10) [4]: 08

PEIQYTSNYNKSVN (REGION 1..14: note = peptide derived from viral capsid protein) [SEQ ID NO: 1921]
group I [1]: X | group II [1]: X | group III [1]: X | top 10% [2]: X

369 (ASAVTNAPGEMKK) [compound 369]
rank by relative signal strength (top binding peptides of mAb E10B10) [4]: 02

LEDNLSEGIREWWD (REGION 1..14: note = peptide derived from viral capsid protein) [SEQ ID NO: 1898]
peptide number among the top 20 peptide hits of mAb Mac2-158 [3]: 04 | group I [1]: X | group II [1]: X | group III [1]: X

377 (SAVTNAPGEM) [compound 377]
rank by relative signal strength (top binding peptides of mAb E10B10) [4]: 10

KIFNIQVKEVTTSN (REGION 1..14: note = peptide derived from viral capsid protein) [SEQ ID NO: 1896]
peptide number among the top 20 peptide hits of mAb Mac2-158 [3]: 20 | group I [1]: X | group II [1]: X | group III [1]: X | top 10% [2]: X

SNSQLIFAGPNPSG [SEQ ID NO: 1908]
peptide number among the top 20 peptide hits of mAb Mac2-158 [3]: 03 | group I [1]: X | group II [1]: X | group III [1]: X | top 10% [2]: X

NYNKSVNVDFTVDT (REGION 1..14: note = peptide derived from viral capsid protein) [SEQ ID NO: 1903]
peptide number among the top 20 peptide hits of mAb Mac2-158 [3]: 19 | group I [1]: X | group II [1]: X | group III [1]: X | top 10% [2]: X

372 (GSASAVTNAPGEM) [compound 372]
rank by relative signal strength (top binding peptides of mAb E10B10) [4]: 05

Reference: patent US20250213707A1, “COMPOUND FOR INCREASING EFFICACY OF ONCOLYTIC VIRUSES” (ABLEVIA BIOTECH GMBH, priority 2022, published 2025)
